Results on six molecules are retold here after patent publication US20260144798A1, “Disruption of Vascular Smooth Muscle Relaxation by Carfilzomib May be the Primary Reason for CFZ-Induced Vascular Dysfunction” (AMGEN INC., priority 2019, published 2026).

Test [1] has as its system rat aortic rings. The test is described as follows: Nifedipine-induced relaxation of rat aortic rings. The settings on record: increasing concentration of nifedipine (FIG. 2C). On the procedure: An isometric myograph (DMT 620M) was used for ex vivo measurement of vascular function. Eight-to 10-week old Sprague Dawley rats (purchased from Charles River Laboratories, Wilmington, MA) were first anesthetized with 3% isoflurane and then euthanized using inhaled desflurane. The aortas were isolated in an ice-cold, oxygenated (95% O2, 5% CO2) Krebs-Henseleit buffer (118.3 mM NaCl, 4.7 mM KCl, 1.2 mM MgSO4, 1.2 mM KH2PO4, 2.5 mM CaCl2, 25 mM NaHCO3, and 11.0 mM glucose; purchased from Sigma-Aldrich, St. Louis, MO). […] The tension of the aortic rings was continuously measured with the Lab Chart 7 data acquisition system (ADInstruments, Colorado Springs, CO). […]
(§1) To assess the effect of CFZ on vascular contraction, the aortic rings were pre-treated with or without CFZ for 2 hours, followed by treatment with an increasing concentration of phenylephrine (PE) from 10 nM to 1 μM. […] The contraction was continuously measured and plotted as percent contraction normalized to the response of KPSS. […] The relaxation was continuously measured and plotted as percent relaxation normalized to the response with 1 μM PE.

The subject of test [2] is rat aortic rings. Put plainly: sGC activator (cinaciguat, riociguat)-induced relaxation of rat aortic rings. The note with it: Rattus norvegicus. The procedure: An isometric myograph (DMT 620M) was used for ex vivo measurement of vascular function. Eight-to 10-week old Sprague Dawley rats (purchased from Charles River Laboratories, Wilmington, MA) were first anesthetized with 3% isoflurane and then euthanized using inhaled desflurane. The aortas were isolated in an ice-cold, oxygenated (95% O2, 5% CO2) Krebs-Henseleit buffer (118.3 mM NaCl, 4.7 mM KCl, 1.2 mM MgSO4, 1.2 mM KH2PO4, 2.5 mM CaCl2, 25 mM NaHCO3, and 11.0 mM glucose; purchased from Sigma-Aldrich, St. Louis, MO). The thoracic aorta was carefully cleaned to remove perivascular fat and cut into 2-mm rings that were mounted between two stainless steel wires in the myograph chamber containing 8 mL of Krebs-Henseleit buffer in 95% O2 and 5% CO2 at 37° C. First, the rings were equilibrated in the chamber for 20 minutes, followed by a gradual increase of mechanical stretch until a final stretch of 10 mN (Newton) was reached. After an additional incubation with fresh buffer for 30 minutes, the rings were constricted with 8 mL of 80 mM KPSS (43 mM NaCl, 80 mM KCl, 2.5 mM CaCl2, 1.2 mM MgSO4, 1.2 mM KH2PO4, 25.0 mM NaHCO3, and 11.0 mM glucose) for 15 to 20 minutes, followed by 3 washes with the Krebs-Henseleit buffer until the force returned to the baseline stretch. The tension of the aortic rings was continuously measured with the Lab Chart 7 data acquisition system (ADInstruments, Colorado Springs, CO). […] The tension of the aortic rings was continuously measured with the Lab Chart 7 data acquisition system (ADInstruments, Colorado Springs, CO).
as §1

Test [3] deals with rat aortic rings. The test is described as follows: Acetylcholine-induced relaxation of phenylephrine-precontracted rat aortic rings. The note with it: for EC50 for ACh-induced relaxation, CFZ in combination with PDE5 inhibitor: PDE5 inhibitor 30 nM, 10-minute pre-treatment before CFZ, CFZ alone 7.3×10^−8, vehicle alone 1.9×10^−8 (FIG. 5B); for prevention of CFZ induced vascular dysfunction in the presence of ACh: inhibitor 10 mins before 2.7 μM CFZ for 1 hour, 1 μM Phenylephrine precontraction (FIG. 8A, 9A).
Experimental: (§2) For assessment of the effect of CFZ on vascular relaxation, the pre-treated aortic rings were incubated with 1 μM PE for 20 minutes to induce contraction. For experiments involving sildenafil and tadalafil, a 10-minute pre-treatment with 30 nM of these smooth muscle relaxants was done prior to the incubation with CFZ. After reaching a stable contraction, ACh, sodium nitroprusside (SNP), nifedipine, riociguat, or cinaciguat was added to the chamber at an increasing concentration from 100 pM to 10 μM; each stepwise concentration increase was added after the response to the current concentration reached a plateau. The relaxation was continuously measured and plotted as percent relaxation normalized to the response with 1 μM PE.
(§3) Aortas were isolated from 8-10 week old CD® (Sprague Dawley) rats (from Charles River Laboratories) in an ice-cold, oxygenated (95% O2, 5% CO2) Krebs-Henseleit buffer. The aortas were then carefully cleaned to remove perivascular fat and cut into 2-mm rings that were mounted between two stainless steel wires in the myograph chamber containing 8 mL of Krebs-Henseleit buffer in 95% O2 and 5% CO2 at 37° C. Rings were stretch until a final stretch of 10 mN (Newton) was reached and incubated for 30 mins for equilibration.

Test [4] concerns rat aortic rings. Put plainly: Angiotensin induced contraction (AUC) of rat aortic rings. The settings on record: inhibitor 10 mins before 2.7 μM CFZ 1.5 hour; 30 nM Angiotensin (FIG. 11).
Experimental: Aortas were isolated from 8-10 week old CD® (Sprague Dawley) rats (from Charles River Laboratories) in an ice-cold, oxygenated (95% O2, 5% CO2) Krebs-Henseleit buffer. The aortas were then carefully cleaned to remove perivascular fat and cut into 2-mm rings that were mounted between two stainless steel wires in the myograph chamber containing 8 mL of Krebs-Henseleit buffer in 95% O2 and 5% CO2 at 37° C. Rings were stretch until a final stretch of 10 mN (Newton) was reached and incubated for 30 mins for equilibration. The rings were constricted with 8 mL of 80 mM KPSS for 15 minutes, followed by 3 washes with the Krebs-Henseleit buffer until the force returned to the baseline stretch. The aorta were then treated for one of the following experiments: • For protein expression studies the aortic rings were pre-treated with 100 μM N(gamma)-nitro-L-arginine methyl ester (L-NAME; Sigma-Aldrich) and 10 μM indomethacin for 10 minutes prior to the pre-incubation with CFZ (Amgen Inc.) for 1.5 hours.
Following the two incubation the rings were treated with either vehicle or 2.7 μM CFZ for further 1.5 hours before addition of 30 nM Angiotensin for 30 min. Angiotensin induced transient contraction which returned to the baseline in 30 mins. Area Under the Curve (AUC) of angiotensin induced contraction was measured.
Aortic rings were incubated for 10 min with 100 μM LNAME+10 μM indomethacin (endothelium derived relaxing agents blockers) for 10 mins followed by addition of 10 μM SB 203580 (p38 inhibitor) or PF3644022 (MAPKAPK-2 inhibitor) in some rings for 10 more mins as indicated. This was followed by addition of 2.7 μM CFZ in some rings as indicated for 1.5 hour. 30 nM Angiotensin was added for 30 min. Angiotensin induced transient contraction which returned to the baseline in 30 mins.
Test [5] has as its system rat aortic rings. Put plainly: Sodium nitroprusside-induced relaxation of phenylephrine-precontracted rat aortic rings. The note with it: for prevention of CFZ induced vascular dysfunction in the presence of SNP: inhibitor 10 mins before 2.7 μM CFZ for 1 hour, 1 μM Phenylephrine precontraction (FIG. 8B, 9B).
Experimental: as §2, §3
In test [6] the test system is rat aortic rings. Put plainly: Basal vascular tone of isolated rat aortic rings, isometric myograph. The settings on record: 10 μM SB 203580 10 mins before 2.7 μM CFZ for 3 hour; LNAME+indomethacin (FIG. 10). On the procedure:
An isometric myograph (DMT 620M) was used for ex vivo measurement of vascular function. Eight-to 10-week old Sprague Dawley rats (purchased from Charles River Laboratories, Wilmington, MA) were first anesthetized with 3% isoflurane and then euthanized using inhaled desflurane. The aortas were isolated in an ice-cold, oxygenated (95% O2, 5% CO2) Krebs-Henseleit buffer (118.3 mM NaCl, 4.7 mM KCl, 1.2 mM MgSO4, 1.2 mM KH2PO4, 2.5 mM CaCl2, 25 mM NaHCO3, and 11.0 mM glucose; purchased from Sigma-Aldrich, St. Louis, MO). The thoracic aorta was carefully cleaned to remove perivascular fat and cut into 2-mm rings that were mounted between two stainless steel wires in the myograph chamber containing 8 mL of Krebs-Henseleit buffer in 95% O2 and 5% CO2 at 37° C. First, the rings were equilibrated in the chamber for 20 minutes, followed by a gradual increase of mechanical stretch until a final stretch of 10 mN (Newton) was reached. After an additional incubation with fresh buffer for 30 minutes, the rings were constricted with 8 mL of 80 mM KPSS (43 mM NaCl, 80 mM KCl, 2.5 mM CaCl2, 1.2 mM MgSO4, 1.2 mM KH2PO4, 25.0 mM NaHCO3, and 11.0 mM glucose) for 15 to 20 minutes, followed by 3 washes with the Krebs-Henseleit buffer until the force returned to the baseline stretch. The tension of the aortic rings was continuously measured with the Lab Chart 7 data acquisition system (ADInstruments, Colorado Springs, CO). In Some of the experiments the aortic rings were pre-treated with 100 μM N(gamma)-nitro-L-arginine methyl ester (L-NAME; Sigma-Aldrich) and 10 μM indomethacin for 10 minutes prior to the pre-incubation with CFZ (Amgen Inc.) for 2 hours. After an additional incubation with fresh buffer for 30 minutes, the rings were constricted with 8 mL of 80 mM KPSS (43 mM NaCl, 80 mM KCl, 2.5 mM CaCl2, 1.2 mM MgSO4, 1.2 mM KH2PO4, 25.0 mM NaHCO3, and 11.0 mM glucose) for 15 to 20 minutes, followed by 3 washes with the Krebs-Henseleit buffer until the force returned to the baseline stretch. The tension of the aortic rings was continuously measured with the Lab Chart 7 data acquisition system (ADInstruments, Colorado Springs, CO).
To assess the effect of CFZ on vascular contraction, the aortic rings were pre-treated with or without CFZ for 2 hours, followed by treatment with an increasing concentration of phenylephrine (PE) from 10 nM to 1 μM. After the maximum contraction was achieved, the aortic rings were washed 3 times until the force returned to baseline. The contraction was continuously measured and plotted as percent contraction normalized to the response of KPSS. […] The relaxation was continuously measured and plotted as percent relaxation normalized to the response with 1 μM PE. […]

Read-outs that look alike come from different tables or passages of the source.

For `COC(=O)C1=C(C)NC(C)=C(C(=O)OC)C1c1ccccc1[N+](=O)[O-]` [nifedipine], the “plateau of vascular relaxation” value in the test on rat aortic rings [1] was “around 50%”.
For orientation: EC50 means the midpoint of the concentration-response curve. For `COC(=O)N(C)c1c(N)nc(-c2nn(Cc3ccccc3F)c3ncccc23)nc1N` [riociguat], the half-maximal effective concentration (EC50) in the test on rat aortic rings [2] (rings pre-incubated with CFZ (FIG. 4C), read-out: EC50 for relaxation, sGC activator with CFZ) was found to be 0.017 µM; in the test with rat aortic rings [2] (without CFZ (FIG. 4C), read-out: EC50 for relaxation, sGC activator alone) it was 0.018 µM.
Take `CN1CC(=O)N2[C@H](c3ccc4c(c3)OCO4)c3[nH]c4ccccc4c3C[C@@H]2C1=O` [tadalafil]: the “EC50 for ACh-induced relaxation, CFZ in combination with PDE5 inhibitor” value with rat aortic rings [3] was 2.8×10^−8.
`C[S+]([O-])c1ccc(-c2nc(-c3ccncc3)c(-c3ccc(F)cc3)[nH]2)cc1` (centres unmarked) [SB203580]: the “prevention of CFZ-increased angiotensin induced contraction” value in the test with rat aortic rings [4] was “prevented”. Moreover, in the test with rat aortic rings [5], the “prevention of CFZ induced vascular dysfunction in the presence of SNP” value is recorded as “prevented CFZ induced vascular dysfunction”. Also, the “prevention of CFZ induced increase in vascular tone” value with rat aortic rings [6] is “completely prevented”. The “prevention of CFZ induced vascular dysfunction in the presence of ACh” value in the test on rat aortic rings [3] was “prevented CFZ induced vascular dysfunction”.
Turning to `CCCc1nn(C)c2c(=O)[nH]c(-c3cc(S(=O)(=O)N4CCN(C)CC4)ccc3OCC)nc12` [sildenafil], the “reversal of CFZ effect on VSM relaxation in the presence of SNP” value in the test with rat aortic rings [5] (30 nM pre-treatment 10 minutes before CFZ (FIG. 5A)) was “reversed the CFZ effect on VSM relaxation”. Further, the “reversal of CFZ effect on VSM relaxation in the presence of ACh” value in the test on rat aortic rings [3] (30 nM pre-treatment 10 minutes before CFZ (FIG. 5B)) was “reversed the CFZ effect on VSM relaxation”. The “EC50 for ACh-induced relaxation, CFZ in combination with PDE5 inhibitor” value in the test with rat aortic rings [3] was 2.8×10^−8.
As to `Cc1ccc(-c2ccc3c(ccc4sc5c(c43)NC[C@@H](C)NC5=O)n2)cn1` [PF3644022], in the test with rat aortic rings [4], the “prevention of CFZ-increased angiotensin induced contraction” value is on record as “prevented”. The “prevention of CFZ induced vascular dysfunction in the presence of SNP” value with rat aortic rings [5] was “prevented CFZ induced vascular dysfunction”. The “prevention of CFZ induced vascular dysfunction in the presence of ACh” value in the test with rat aortic rings [3] was “prevented CFZ induced vascular dysfunction”.
